These compounds were tested against TNFα (Homo sapiens, UniProt P01375) (assay: TNF induced HEK-Blue assay (NF-kB-driven secreted alkaline phosphatase reporter)). Conditions: TNF induced HEK-Blue assay IC50 value, TNFα 0.5 ng/mL, HEK-Blue-CD40L cells, 18 h.
Format: cell-based
How it was run: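 HEK-Blue-CD40L cells (NF-kB-driven SEAP reporter), 20,000/well, added after 30 min pre-incubation of compound (0.004–25 μM final) with TNFα 0.5 ng/mL final at 37 °C; 18 h incubation. SEAP read with QUANTI-Blue at 620 nm; IC50 from 4-parameter logistic fit, normalized to unstimulated and stimulated DMSO controls.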

Chain of TNFα (P01375 77-233 limits assumed): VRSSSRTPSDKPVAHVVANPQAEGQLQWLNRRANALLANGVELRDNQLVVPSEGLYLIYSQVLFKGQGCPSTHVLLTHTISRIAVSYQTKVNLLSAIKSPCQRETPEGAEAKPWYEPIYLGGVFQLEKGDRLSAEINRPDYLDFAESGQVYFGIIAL

| Compound | IC50 |
| --- | --- |
| CC(Nc1c(Cl)cnc2ccc(-c3cnc(C(C)(C)O)nc3)cc12)c1ccccc1C(F)(F)F (racemic) [Example 151, 2-(5-(3-chloro-4-((1-(2-(trifluoromethyl)phenyl)ethyl)amino)quinolin-6-yl)pyrimidin-2-yl)propan-2-ol] | < 1000 nM |
| CC(=O)N1CCC[C@H]([C@H](C)Nc2c(Cl)cnc3ccc(-c4cnc(C(C)(C)O)nc4)cc23)C1 [Example 107, 1-((S)-3-((S)-1-((3-chloro-6-(2-(2-hydroxypropan-2-yl)pyrimidin-5-yl)quinolin-4-yl)amino)ethyl)piperidin-1-yl)ethanone] | < 1000 nM |

Same assay, conditions: TNFα 0.5 ng/mL, HEK-Blue-CD40L cells, 18 h; read-out: TNF induced HEK-Blue assay IC50 value

| Compound | IC50 |
| --- | --- |
| Cc1ccc(C)c(Nc2c(Cl)c(CN)nc3ccc(-c4ccc(C#N)nc4)cc23)c1 [Example 43, 5-(2-(aminomethyl)-3-chloro-4-((2,5-dimethylphenyl)amino)quinolin-6-yl)picolinonitrile] | 1000 to 10000 nM |
| CC(Nc1c(Cl)cnc2ccc(-c3cnc(N4CCNC(=O)C4)nc3)cc12)c1nc(C(=O)Nc2ccccc2)ccc1F (racemic) [Example 38, 6-(1-((3-chloro-6-(2-(3-oxopiperazin-1-yl)pyrimidin-5-yl)quinolin-4-yl)amino)ethyl)-5-fluoro-N-phenylpicolinamide] | 1000 to 10000 nM |
| Cc1ccc(C)c(Nc2c(Cl)c(C)nc3ccc(-c4ccc(CN5CCN(C(=O)OC(C)(C)C)CC5)cc4)cc23)c1 [Example 6, tert-butyl 4-(4-(3-chloro-4-((2,5-dimethylphenyl)amino)-2-methylquinolin-6-yl)benzyl)piperazine-1-carboxylate] | 1000 to 10000 nM |
| Cc1ccc(C)c(Nc2c(Cl)c(C)nc3ccc(-c4ccc(C(=O)O)nc4)cc23)c1 [Example 9, 5-(3-chloro-4-((2,5-dimethylphenyl)amino)-2-methylquinolin-6-yl)picolinic acid] | 10000 to 25000 nM |
| CC(Nc1c(F)cnc2ccc(-c3cnc(C(C)(C)O)nc3)cc12)c1ccccc1F (racemic) [Example 156, 2-(5-(3-fluoro-4-((1-(2-fluorophenyl)ethyl)amino)quinolin-6-yl)pyrimidin-2-yl) propan-2-ol] | 1000 to 10000 nM |
| Cc1ccc(C)c(NCc2nc3ccc(-c4ccc(C#N)nc4)cc3c(Nc3cc(C)ccc3C)c2Cl)c1 [Example 3, 5-(3-chloro-4-((2,5-dimethylphenyl)amino)-2-(((2,5-dimethylphenyl)amino)methyl)quinolin-6-yl)picolinonitrile] | 1000 to 10000 nM |
| C[C@@H](Nc1c(Cl)cnc2ccc(-c3ccc(CO)cc3)cc12)c1ccccc1F [Example 220, (R)-(4-(3-chloro-4-((1-(2-fluorophenyl)ethyl)amino)quinolin-6-yl)phenyl)methanol] | 10000 to 25000 nM |
| CC#CC(=O)N1CCN(c2ccc(-c3ccc4ncc(Cl)c(N[C@H](C)c5ccccc5F)c4c3)cn2)CC1 [Example 125, (R)-1-(4-(5-(3-chloro-4-((1-(2-fluorophenyl)ethyl)amino)quinolin-6-yl)pyridin-2-yl)piperazin-1-yl)but-2-yn-1-one] | < 1000 nM |
| CC(C)(O)c1ncc(-c2ccc3ncc(Cl)c(NC(c4ccccc4F)C(F)F)c3c2)cn1 (single isomer, unassigned) [Example 55, 2-(5-(3-chloro-4-((2,2-difluoro-1-(2-fluorophenyl)ethyl)amino)quinolin-6-yl)pyrimidin-2-yl)propan-2-ol] | < 1000 nM |
| CC(=O)NC(C)(C)c1ccc(-c2ccc3ncc(Cl)c(NC(C)c4ccccc4F)c3c2)cc1 (centres unmarked) [Example 592, N-(2-(4-(3-chloro-4-((1-(2-fluorophenyl)ethyl)amino)quinolin-6-yl)phenyl)propan-2-yl)acetamide] | 1000 to 10000 nM |
| Fc1ccc(-c2cncnc2)cc1[C@H](Nc1c(Cl)cnc2ccccc12)C(F)F [Example 559, (S)-3-chloro-N-(2,2-difluoro-1-(2-fluoro-5-(pyrimidin-5-yl)phenyl)ethyl)quinolin-4-amine] | < 1000 nM |
| C[C@@H](Nc1c(Cl)cnc2ccc(-c3ccc(N4CCOC[C@H]4CO)nc3)cc12)c1ccccc1F [Example 85, ((R)-4-(5-(3-chloro-4-(((R)-1-(2-fluorophenyl)ethyl)amino)quinolin-6-yl)pyridin-2-yl)morpholin-3-yl)methanol] | 1000 to 10000 nM |
| COC(=O)CN1CCN(c2ncc(-c3ccc4ncc(Cl)c(N[C@@H](c5ccccc5F)C(F)F)c4c3)cn2)CC1 [Example 14, (S)-methyl 2-(4-(5-(3-chloro-4-((2,2-difluoro-1-(2-fluorophenyl)ethyl)amino)quinolin-6-yl)pyrimidin-2-yl)piperazin-1-yl)acetate] | < 1000 nM |
| C=Cc1ccc(F)c([C@@H](C)Nc2c(Cl)c(C)nc3cc(F)c(-c4cnc(C(C)(C)O)nc4)nc23)c1 [Example 572, (R)-2-(5-(7-chloro-3-fluoro-8-((1-(2-fluoro-5-vinylphenyl)ethyl)amino)-6-methyl-1,5-naphthyridin-2-yl)pyrimidin-2-yl)propan-2-ol] | 1000 to 10000 nM |

More lines, now with the values ahead:

| IC50 | Compound |
| --- | --- |
| < 1000 nM | Cc1ccc(C)c(Nc2c(Cl)c(N)nc3ccc(-c4cnc(NCC(C)(C)O)nc4)cc23)c1 [Example 69, 1-((5-(2-amino-3-chloro-4-((2,5-dimethylphenyl)amino)quinolin-6-yl)pyrimidin-2-yl)amino)-2-methylpropan-2-ol] |
| < 1000 nM | CC(Nc1c(Cl)cnc2ccc(-c3ccc(C(C)(C)O)cc3)cc12)c1cncs1 (racemic) [Example 211, 2-(4-(3-chloro-4-((1-(thiazol-5-yl)ethyl)amino)quinolin-6-yl)phenyl)propan-2-ol] |
| < 1000 nM | Cc1nc2ccc(-c3cnc(N4CCN(CC(=O)O)CC4)nc3)cc2c(N[C@H](C)c2cc(-c3cn[nH]c3)ccc2F)c1Cl [Example 342, (R)-2-(4-(5-(3-chloro-4-((1-(2-fluoro-5-(1H-pyrazol-4-yl)phenyl)ethyl)amino)-2-methylquinolin-6-yl)pyrimidin-2-yl)piperazin-1-yl)acetic acid] |
| < 1000 nM | C[C@@H](Nc1c(Cl)cnc2ccccc12)c1cc(-c2cnn(C)c2)ccc1F [Example 454, (R)-3-chloro-N-(1-(2-fluoro-5-(1-methyl-1H-pyrazol-4-yl)phenyl)ethyl)quinolin-4-amine] |
| < 1000 nM | CCNC(=O)c1ccc(F)c(C(C)Nc2c(Cl)cnc3ccc(-c4cnc(N5CCNC(=O)C5)nc4)cc23)n1 (racemic) [Example 39, 6-(1-((3-chloro-6-(2-(3-oxopiperazin-1-yl)pyrimidin-5-yl)quinolin-4-yl)amino)ethyl)-N-ethyl-5-fluoropicolinamide] |
| < 1000 nM | CC(Nc1c(Cl)cnc2cc(F)c(-c3ccc(C(O)CO)cc3)cc12)c1ccccc1F (centres unmarked) [Example 256, 1-(4-(3-chloro-7-fluoro-4-((1-(2-fluorophenyl)ethyl)amino)quinolin-6-yl)phenyl)ethane-1,2-diol] |
| < 1000 nM | C[C@@H](Nc1c(Cl)cnc2ccc(-c3cnc(C(C)(C)O)nc3)cc12)c1cc(-c2ncn[nH]2)ccc1F [Example 414, (R)-2-(5-(3-chloro-4-((1-(2-fluoro-5-(1H-1,2,4-triazol-5-yl)phenyl)ethyl)amino)quinolin-6-yl)pyrimidin-2-yl)propan-2-ol] |
| < 1000 nM | C[C@@H](Nc1c(Cl)cnc2ccc(-c3ccc(C(O)(CF)CF)cc3)cc12)c1ccccc1F [Example 117, (R)-2-(4-(3-chloro-4-((1-(2-fluorophenyl)ethyl)amino)quinolin-6-yl)phenyl)-1,3-difluoropropan-2-ol] |
| < 1000 nM | CC(Nc1c(Cl)cnc2cc(F)c(-c3cnc(C(O)CO)nc3)cc12)c1ccccc1F (single isomer, unassigned) [Example 596, 1-(5-(3-chloro-7-fluoro-4-((1-(2-fluorophenyl)ethyl)amino)quinolin-6-yl)pyrimidin-2-yl)ethane-1,2-diol] |
| < 1000 nM | Cc1nc2ccc(-c3cnc(C(C)(C)O)nc3)cc2c(N[C@H](C)c2cc(Cc3ccccc3)ccc2F)c1Cl [Example 396, (R)-2-(5-(4-((1-(5-benzyl-2-fluorophenyl)ethyl)amino)-3-chloro-2-methylquinolin-6-yl)pyrimidin-2-yl)propan-2-ol] |
| < 1000 nM | Cc1nc2ccc(-c3cnc(C(C)(C)O)nc3)cc2c(N[C@H](C)c2cc(-c3cc[nH]n3)ccc2F)c1Cl [Example 336, (R)-2-(5-(3-chloro-4-((1-(2-fluoro-5-(1H-pyrazol-3-yl)phenyl)ethyl)amino)-2-methylquinolin-6-yl)pyrimidin-2-yl)propan-2-ol] |
| < 1000 nM | Cc1nc2ccccc2c(N[C@H](C)c2cc(-c3cncnc3)ccc2F)c1Cl [Example 530, (R)-3-chloro-N-(1-(2-fluoro-5-(pyrimidin-5-yl)phenyl)ethyl)-2-methylquinolin-4-amine] |
| < 1000 nM | Cc1ccc(C)c(Nc2c(C)c(C)nc3ccc(-c4cnc(C(C)(C)O)nc4)cc23)c1 [Example 184, 2-(5-(4-((2,5-dimethylphenyl)amino)-2,3-dimethylquinolin-6-yl)pyrimidin-2-yl)propan-2-ol] |
| < 1000 nM | CC(Nc1c(Cl)cnc2cc(F)c(-c3ccc(C(O)C4CC4)cc3)cc12)c1ccccc1F (centres unmarked) [Example 260, (4-(3-chloro-7-fluoro-4-((1-(2-fluorophenyl)ethyl)amino)quinolin-6-yl)phenyl)(cyclopropyl)methanol] |
| < 1000 nM | C[C@@H](Nc1c(Cl)cnc2ccc(-c3cnc(C(C)(C)O)nc3)cc12)c1cc(S(C)(=O)=O)ccc1F [Example 425, (R)-2-(5-(3-chloro-4-((1-(2-fluoro-5-(methylsulfonyl)phenyl)ethyl)amino)quinolin-6-yl)pyrimidin-2-yl)propan-2-ol] |
| < 1000 nM | CC(Nc1c(Cl)cnc2ccc(-c3ccc(C(C)(C)O)cc3)cc12)c1ccccn1 (racemic) [Example 175, 2-(4-(3-chloro-4-((1-(pyridin-2-yl)ethyl)amino)quinolin-6-yl)phenyl)propan-2-ol] |

— US10865191B2, “Heterocyclic compounds useful as modulators of TNF alpha” (BRISTOL-MYERS SQUIBB COMPANY, priority 2015, dated 2020)
